The target of data set [1] is T1, PPAR alpha-LBD (Homo sapiens, UniProt Q07869).
T1 construct: 10 μl of 4×PPAR alpha-LBD/Tb-anti-GST antibody
T1 sequence (Q07869 239-466 limits assumed): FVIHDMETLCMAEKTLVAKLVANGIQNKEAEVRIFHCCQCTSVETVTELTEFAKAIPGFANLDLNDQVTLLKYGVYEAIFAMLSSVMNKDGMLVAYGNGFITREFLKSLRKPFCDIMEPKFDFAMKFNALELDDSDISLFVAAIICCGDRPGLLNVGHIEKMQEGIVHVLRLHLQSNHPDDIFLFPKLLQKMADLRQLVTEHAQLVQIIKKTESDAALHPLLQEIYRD
In kind it is binding. The note with it: sample final concentration 100 M (so in the source); compared with fenofibrate (positive control); FIG. 7.

Data set [2] concerns the target T2, PPAR gamma-LBD (Homo sapiens, UniProt P37231).
T2 construct: 10 μl of 4×PPAR gamma-LBD/Tb-anti-GST antibody
T2 sequence (P37231 238-503 limits assumed): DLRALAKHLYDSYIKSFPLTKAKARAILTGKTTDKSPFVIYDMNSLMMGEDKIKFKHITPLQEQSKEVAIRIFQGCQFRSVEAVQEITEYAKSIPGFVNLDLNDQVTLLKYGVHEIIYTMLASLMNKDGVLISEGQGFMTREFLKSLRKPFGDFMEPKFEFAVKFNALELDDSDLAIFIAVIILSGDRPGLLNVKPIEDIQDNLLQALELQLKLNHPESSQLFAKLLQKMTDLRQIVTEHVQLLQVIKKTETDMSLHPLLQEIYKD
In words: PPAR gamma assay (fluormone Pan-PPAR green competition, Tb-anti-GST antibody). The note with it: sample final concentration 100 M (so in the source); compared with rosiglitazone (positive control); FIG. 8. In kind it is binding. How it is done:
20 μl of a sample and 10 μl of 4× fluormone Pan-PPAR green were spread onto 384 well plates, and 10 μl of 4×PPAR alpha-LBD/Tb-anti-GST antibody or 10 μl of 4×PPAR gamma-LBD/Tb-anti-GST antibody were respectively used in PPAR alpha assay and PPAR gamma assay. In this regard, a sample compound was dissolved in such an amount of DMSO that made a final concentration of the sample to be 100 µM, and the DMSO final concentration was maintained within 1%. The reaction mixture was left at room temperature for 2 to 6 hours, and then, the absorption thereof was measured by using a microplate reader (Hewlett Packard) at an excitation wavelength of 340 nm and at an emission wavelength of 485 nm, and at an exitation wavelength of 340 nm and an emission wavelength of 520 nm to calculate a value of 520 nm/485 nm. In this regard, if a negative control was assumed to have an absorption value of 100, a competitive activation rate was defined as follows: 100 minus an absorption value of each sample. That is, the competitive activation rate indicates a binding ratio of the respective samples with respect to the negative control. […]

Data set [3] deals with ROS generated by vascular endothelial cells (YPEN-1). As to the kind of experiment: In vitro ROS scavenging activity assay (DCFDA) in YPEN-1 vascular endothelial cells. Format: cell-based, rat. The note with it: YPEN-1 cells pre-treated with 50 μM SIN-1 for 1 hour; DCFDA fluorescence; compared with trolox (positive control); FIGS. 1 to 3. As for the experimental part: YPEN-1 cells (rat prostatic endothelial cell line) was obtained from American type culture collection (ATCC, Manassas, Va., USA), and the cells were cultured by using a dulbecco's modified eagle medium (DMEM, Nissui, Tokyo, Japan) containing 2 mM L-glutamine, […], 2.5 mg/L amphotericin B, and 5% inactivated fetal bovine serum (FBS). Also, the cells were maintained at a temperature of 37° C. in a humid atmosphere-like condition containing 5% CO2 and 95% air. […] The cells were sub-cultured in 100 mm plastic flask (Corning Co., New York, USA) every two days to maintain the cell line.
Since the oil-soluble DCFDA was deacetylated into non-fluorescent DCFH due to esterase or oxidative hydrolysis and the DCFH was oxidized due to activity oxgyen to produce highly-fluorescent 2′,7′-dichlorofluorescein (DCF), the present measurement was performed at an excitation wavelength of 485 nm and an emission wavelength of 530 nm by using a fluorophotometer (GENios, TECAN). Vascular endothelial cells that were pre-treated with 50 μM 3-morpholinosydnonimine hydrochloride (SIN-1) for 1 hour were used as a reactive oxygen generation source.

The subject of data set [4] is Mushroom-derived tyrosinase. As to the kind of experiment: Tyrosinase inhibitory effect. In kind it is biochemical. The note with it: 1 mM L-tyrosin, pH 6.5, 25° C., 30 minutes, OD492; compared with kojic acid (positive control); FIGS. 4 to 6. How it is done: Mushroom-derived tyrosinase was sued as an enzyme source in the present experiment. Tyrosinase activities were assayed according to a slightly-modified conventionally known method (Life Sci., 1999, 65, 241-246). In detail, 20 μl of a mushroom-derived tyrosinase (1000 units) aqueous solution was added to 96-well microplate (Nunc, Denmark) to prepare 200 μl of the total volume of assay mixture containing 1 mM L-tyrosin solution and 50 mM phosphate buffer solution (pH 6.5). The assay mixture was cultured at a temperature of 25° C. for 30 minutes. After the culturing, an amount of the produced DOPA chrome in the reaction mixture was measured by using a microplate reader (Hewlett Packard) at 492 nm (OD492).

Data set [5] relates to male Balb/c mouse. As to the kind of experiment: Toxicity test, single oral administration. In kind it is in vivo. The note with it: single oral dose 0.5, 1 and 2 g/kg in 0.5% methylcellulose, observed 7 days. As for the experimental part: A suspension of each of Compound 3, Compound 15, Compound 50, Compound 85, Compound 93, and Compound 115 in a 0.5% methylcellulose solution was orally administered once to a male Balb/c mouse in dosages of 0.5 g/kg, 1 g/kg, and 2 g/kg, and then the survival rate and body weight of the mouse was recorded for 7 days.
After the administration, whether the mouse died, clinical symptoms occurred, and body weight changed were identified and hematologic examination and blood biochemical examination were performed, and autopsy was performed to identify with naked eyes states of abdominal cavity organs and thoracic cavity organs.

Each structure is given as a SMILES string. Entries after “also recorded” stand apart in the source; their conditions may differ.

For `CC(=O)Oc1ccc(/C=C2\N=C(C)OC2=O)c(O)c1` [Compound 85, (Z)-3-hydroxy-4-((2-methyl-5-oxooxazol-4(5H)-ylidene)methyl)phenyl acetate], the “PPARα activities (competitive activation rate)” value in data set [1] is “very excellent PPARα activation agent compared to fenofibrate; also recorded: simultaneously activates PPARα and PPARγ”. In addition, the “PPARγ activities (competitive activation rate)” value in data set [2] is “simultaneously activates PPARα and PPARγ”.
On to `CC1=N/C(=C\c2ccccc2O)C(=O)O1` [Compound 93, (Z)-4-(2-hydroxybenzylidene)-2-methyloxazol-5(4H)-one], for which the “PPARα activities (competitive activation rate)” value in data set [1] is “very excellent PPARα activation agent compared to fenofibrate; also recorded: simultaneously activates PPARα and PPARγ”. The “PPARγ activities (competitive activation rate)” value in data set [2] was “simultaneously activates PPARα and PPARγ”.
On to `O=C1NC(=S)NC(=O)C1=Cc1ccc(O)c(O)c1` [Compound 50, 5-(3,4-dihydroxybenzylidene)-2-thioxodihydropyrimidine-4,6(1H,5H)-dione], for which the “scavenging effects on ROS generated by vascular endothelial cells” value in data set [3] is “as high scavenging effects on ROS generated by vascular endothelial cells as trolox”. The tyrosinase inhibitory activities entry in data set [4] is “better tyrosinase inhibitory activities than a kojic acid”. For the same compound, in data set [5], the “death and clinical symptoms” value is listed as “neither had distinctive clinical symptoms nor died”; the “toxicity change (body weight change, hematologic examination, blood biochemical examination, autopsy)” value was “toxicity change was not identified”.
